# Measurements from patent US20240101531A1, “PYRIDINAMINE DERIVATIVES AND THEIR USE AS POTASSIUM CHANNEL MODULATORS” (Xenon Pharmaceuticals Inc., priority 2022, published 2024).
# Biological target: human KV7.2/KV7.3 (Homo sapiens (Human), UniProt O43525+O43526)
# Experiment: Potassium flux assay (IPG-2 AM dye)
# Format: cell-based
# Details: TREX HEK 293 or HEK 293 cells expressing human KV7.2/KV7.3; arithmetic mean values
# Summary of the method: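 EC50 from 16 concentrations (2-fold dilutions, top 30 μM), scaled between DMSO baseline and a known KV7.x modulator maximum. Signal is IPG-2 AM fluorescence (ex 530/em 558 nm) after 10 mM KCl challenge buffer addition, following 20 min room-temperature compound exposure of HEK 293 or TREX HEK 293 cells stably expressing human KV7.2/KV7.3.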
row,EC50 [nM],SMILES
1,< 1000,"CC1(COc2ccc3c(Nc4ccc(Cl)nc4)nccc3c2)CS(=O)(=O)C1 [Example 293, 3-(((1-((6-chloropyridin-3-yl)amino)isoquinolin-6-yl)oxy)methyl)-3-methylthietane 1,1-dioxide]"
2,< 1000,"O[C@@H]1CCC[C@@H](Oc2ccc3c(Nc4ccc(Cl)nc4)nccc3c2)C1 (relative stereo) [Example 354, trans-3-((1-((6-chloropyridin-3-yl)amino)isoquinolin-6-yl)oxy)cyclohexan-1-ol]"
3,1000 to 10000,"Fc1c(NCC2CC2)ccc2c(Nc3ccc(Cl)nc3)nccc12 [Example 232, N^1-(6-chloropyridin-3-yl)-N^6-(cyclopropylmethyl)-5-fluoroisoquinoline-1,6-diamine]"
4,1000 to 10000,"OCc1ncc(Nc2nccc3cc(OCC4(F)CC4)ccc23)cn1 [Example 129, (5-((6-((1-fluorocyclopropyl)methoxy)isoquinolin-1-yl)amino)pyrimidin-2-yl)methanol]"
5,1000 to 10000,"Cn1ncc(COc2ccc3c(Nc4ccc(Cl)nc4)nccc3c2)c1Cl [Example 291, 6-((5-chloro-1-methyl-1H-pyrazol-4-yl)methoxy)-N-(6-chloropyridin-3-yl)isoquinolin-1-amine]"
6,< 1000,"Clc1ccc(Nc2nccc3cc(OCc4cn[nH]c4C4CC4)ccc23)cn1 [Example 379, N-(6-chloropyridin-3-yl)-6-((5-cyclopropyl-1H-pyrazol-4-yl)methoxy)isoquinolin-1-amine]"
7,1000 to 10000,"FC(F)Oc1ccc2c(Nc3ccc(Cl)nc3)nccc2c1 [Example 7, N-(6-chloropyridin-3-yl)-6-(difluoromethoxy)isoquinolin-1-amine]"
8,< 1000,"FC1(COc2ccc3c(Nc4cnc(Cl)nc4)nccc3c2)CC1 [Example 68, N-(2-chloropyrimidin-5-yl)-6-((1-fluorocyclopropyl)methoxy)isoquinolin-1-amine]"
9,< 1000,"C#CC1(COc2ccc3c(Nc4ccc(Cl)nc4)nccc3c2)CC1 [Example 151, N-(6-chloropyridin-3-yl)-6-((1-ethynylcyclopropyl)methoxy)isoquinolin-1-amine]"
10,< 1000,"Clc1ccc(Nc2nccc3cc(O[C@H]4CCC5(COC5)C4)ccc23)cn1 [Example 135, (S)-6-((2-oxaspiro[3.4]octan-6-yl)oxy)-N-(6-chloropyridin-3-yl)isoquinolin-1-amine]"
11,1000 to 10000,"CC(CN1CCOCC1)Oc1ccc2c(Nc3ccc(Cl)nc3)nccc2c1 (stereo not shown) [Example 109, N-(6-chloropyridin-3-yl)-6-((1-morpholinopropan-2-yl)oxy)isoquinolin-1-amine]"
12,1000 to 10000,"Clc1ccc(Nc2nccc3cc(OCc4cnc(Cc5cccnc5)o4)ccc23)cn1 [Example 158, N-(6-chloropyridin-3-yl)-6-((2-(pyridin-3-ylmethyl)oxazol-5-yl)methoxy)isoquinolin-1-amine]"
13,1000 to 10000,"Clc1ccc(Nc2nccc3cc(-c4cc[nH]n4)ccc23)cn1 [Example 424, N-(6-chloropyridin-3-yl)-6-(1H-pyrazol-3-yl)isoquinolin-1-amine]"
